Laboratory results taken from patent US10231954B2, “Neurodegenerative therapies” (LYTIX BIOPHARMA AS, priority 2014, dated 2019).

Key:
Type in all cases: biochemical
ERK1 = ERK1 (Homo sapiens, UniProt P27361); assay: Kinase profiling ERK1; conditions: 100 micromolar inhibitor concentration, 100 is no change
From the text: (§1) Any value less that 25 is considered to be highly significant inhibition.

p38a MAPK = p38a MAPK (Homo sapiens, UniProt Q16539); assay: Kinase profiling p38a MAPK; conditions: 100 micromolar inhibitor concentration, 100 is no change
From the text: as §1

p38d MAPK = molecular target: T1, p38d MAPK (Homo sapiens, UniProt O15264); assay: Kinase profiling p38d MAPK; conditions: 100 micromolar inhibitor concentration, 100 is no change
T1 sequence (O15264 1-365): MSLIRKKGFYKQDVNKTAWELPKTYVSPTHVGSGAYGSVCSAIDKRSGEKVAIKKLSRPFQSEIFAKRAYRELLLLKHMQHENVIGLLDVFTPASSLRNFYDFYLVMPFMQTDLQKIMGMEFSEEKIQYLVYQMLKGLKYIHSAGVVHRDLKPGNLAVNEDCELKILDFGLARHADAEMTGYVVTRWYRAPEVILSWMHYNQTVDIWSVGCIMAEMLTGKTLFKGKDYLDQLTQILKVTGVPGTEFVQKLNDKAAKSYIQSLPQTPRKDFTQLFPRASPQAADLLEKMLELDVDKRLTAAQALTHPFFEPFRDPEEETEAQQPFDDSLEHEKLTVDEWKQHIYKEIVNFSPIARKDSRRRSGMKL
From the text: as §1

RSK2 = RSK2 (Homo sapiens, UniProt P51812); assay: Kinase profiling RSK2; conditions: 100 micromolar inhibitor concentration, 100 is no change
From the text: as §1

PKBb = PKBb (Homo sapiens, UniProt P31751); assay: Kinase profiling PKBb; conditions: for residual kinase activity, PKBb: 100 micromolar inhibitor concentration, 100 is no change
From the text: as §1

MSK1 = MSK1 (Homo sapiens, UniProt O75582); assay: Kinase profiling MSK1; conditions: 100 micromolar inhibitor concentration, 100 is no change
From the text: as §1

CAMK1 = CAMK1 (Homo sapiens, UniProt Q14012); assay: Kinase profiling CAMK1; conditions: 100 micromolar inhibitor concentration, 100 is no change
From the text: as §1

SmMLCK = SmMLCK (Homo sapiens, UniProt Q15746); assay: Kinase profiling SmMLCK; conditions: 100 micromolar inhibitor concentration, 100 is no change
MARK3 = MARK3 (Homo sapiens, UniProt P27448); assay: Kinase profiling MARK3; conditions: 100 micromolar inhibitor concentration, 100 is no change
From the text: as §1

NEK6 = NEK6 (Homo sapiens, UniProt Q9HC98); assay: Kinase profiling NEK6; conditions: 100 micromolar inhibitor concentration, 100 is no change
From the text: as §1

TBK1 = molecular target: T2, TBK1 (Homo sapiens, UniProt Q9UHD2); assay: Kinase profiling TBK1; conditions: 100 micromolar inhibitor concentration, 100 is no change
T2 sequence (Q9UHD2 1-729): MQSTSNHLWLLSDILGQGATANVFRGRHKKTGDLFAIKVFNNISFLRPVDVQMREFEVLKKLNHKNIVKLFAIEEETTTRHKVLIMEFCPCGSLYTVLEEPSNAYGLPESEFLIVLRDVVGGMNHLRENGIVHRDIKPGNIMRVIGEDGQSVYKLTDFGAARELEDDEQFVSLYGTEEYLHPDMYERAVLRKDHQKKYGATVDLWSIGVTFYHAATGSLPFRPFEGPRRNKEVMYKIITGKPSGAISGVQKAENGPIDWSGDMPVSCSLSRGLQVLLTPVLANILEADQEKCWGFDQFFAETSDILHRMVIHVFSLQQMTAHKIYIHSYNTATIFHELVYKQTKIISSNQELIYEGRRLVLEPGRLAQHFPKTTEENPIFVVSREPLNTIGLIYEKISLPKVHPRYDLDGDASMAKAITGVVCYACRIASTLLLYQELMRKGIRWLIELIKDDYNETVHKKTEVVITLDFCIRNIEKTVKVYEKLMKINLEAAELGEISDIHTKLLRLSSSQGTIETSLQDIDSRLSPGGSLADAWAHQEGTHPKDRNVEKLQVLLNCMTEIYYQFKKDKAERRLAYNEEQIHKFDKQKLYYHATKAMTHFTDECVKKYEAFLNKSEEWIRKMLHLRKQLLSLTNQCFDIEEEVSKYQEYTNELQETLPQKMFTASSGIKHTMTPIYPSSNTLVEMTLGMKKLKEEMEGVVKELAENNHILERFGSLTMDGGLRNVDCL
From the text: as §1

PAK4 = PAK4 (Homo sapiens, UniProt O96013); assay: Kinase profiling PAK4; conditions: 100 micromolar inhibitor concentration, 100 is no change
From the text: as §1

MST2 = molecular target: T3, MST2 (Homo sapiens, UniProt Q13188); assay: Kinase profiling MST2; conditions: 100 micromolar inhibitor concentration, 100 is no change
T3 sequence (Q13188 1-491): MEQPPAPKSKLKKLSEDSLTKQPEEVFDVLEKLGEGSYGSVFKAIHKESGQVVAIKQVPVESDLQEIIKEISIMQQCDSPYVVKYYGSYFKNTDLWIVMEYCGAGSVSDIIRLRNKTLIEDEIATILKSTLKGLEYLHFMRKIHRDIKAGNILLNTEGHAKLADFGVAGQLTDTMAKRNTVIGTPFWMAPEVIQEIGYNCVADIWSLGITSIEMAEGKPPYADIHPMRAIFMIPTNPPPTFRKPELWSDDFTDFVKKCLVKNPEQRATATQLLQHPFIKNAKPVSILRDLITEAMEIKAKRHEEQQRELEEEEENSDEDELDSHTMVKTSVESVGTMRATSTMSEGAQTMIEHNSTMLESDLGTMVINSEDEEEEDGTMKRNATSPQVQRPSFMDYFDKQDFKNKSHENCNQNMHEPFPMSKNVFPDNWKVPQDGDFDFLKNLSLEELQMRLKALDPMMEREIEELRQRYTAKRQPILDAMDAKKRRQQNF
From the text: as §1

MLK3 = MLK3 (Homo sapiens, UniProt Q16584); assay: Kinase profiling MLK3; conditions: 100 micromolar inhibitor concentration, 100 is no change
From the text: as §1

IRAK4 = molecular target: T4, IRAK4 (Homo sapiens, UniProt Q9NWZ3); assay: Kinase profiling IRAK4; conditions: 100 micromolar inhibitor concentration, 100 is no change
T4 sequence (Q9NWZ3 1-460): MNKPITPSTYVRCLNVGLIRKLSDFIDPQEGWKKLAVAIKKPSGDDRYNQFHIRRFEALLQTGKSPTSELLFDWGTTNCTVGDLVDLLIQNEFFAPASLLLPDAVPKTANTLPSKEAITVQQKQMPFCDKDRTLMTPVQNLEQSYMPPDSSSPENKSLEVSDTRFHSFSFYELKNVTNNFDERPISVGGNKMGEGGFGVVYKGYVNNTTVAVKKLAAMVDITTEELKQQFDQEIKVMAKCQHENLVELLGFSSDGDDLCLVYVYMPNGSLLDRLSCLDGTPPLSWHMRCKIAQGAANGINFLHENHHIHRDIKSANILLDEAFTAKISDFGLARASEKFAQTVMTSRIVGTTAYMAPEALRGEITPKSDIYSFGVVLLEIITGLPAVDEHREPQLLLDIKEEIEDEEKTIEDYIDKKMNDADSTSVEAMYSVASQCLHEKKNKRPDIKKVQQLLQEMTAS
From the text: as §1

SYK = SYK (Homo sapiens, UniProt P43405); assay: Kinase profiling SYK; conditions: 100 micromolar inhibitor concentration, 100 is no change
From the text: as §1

Sequence of MLK3 (Q16584 whole entry, species assumed): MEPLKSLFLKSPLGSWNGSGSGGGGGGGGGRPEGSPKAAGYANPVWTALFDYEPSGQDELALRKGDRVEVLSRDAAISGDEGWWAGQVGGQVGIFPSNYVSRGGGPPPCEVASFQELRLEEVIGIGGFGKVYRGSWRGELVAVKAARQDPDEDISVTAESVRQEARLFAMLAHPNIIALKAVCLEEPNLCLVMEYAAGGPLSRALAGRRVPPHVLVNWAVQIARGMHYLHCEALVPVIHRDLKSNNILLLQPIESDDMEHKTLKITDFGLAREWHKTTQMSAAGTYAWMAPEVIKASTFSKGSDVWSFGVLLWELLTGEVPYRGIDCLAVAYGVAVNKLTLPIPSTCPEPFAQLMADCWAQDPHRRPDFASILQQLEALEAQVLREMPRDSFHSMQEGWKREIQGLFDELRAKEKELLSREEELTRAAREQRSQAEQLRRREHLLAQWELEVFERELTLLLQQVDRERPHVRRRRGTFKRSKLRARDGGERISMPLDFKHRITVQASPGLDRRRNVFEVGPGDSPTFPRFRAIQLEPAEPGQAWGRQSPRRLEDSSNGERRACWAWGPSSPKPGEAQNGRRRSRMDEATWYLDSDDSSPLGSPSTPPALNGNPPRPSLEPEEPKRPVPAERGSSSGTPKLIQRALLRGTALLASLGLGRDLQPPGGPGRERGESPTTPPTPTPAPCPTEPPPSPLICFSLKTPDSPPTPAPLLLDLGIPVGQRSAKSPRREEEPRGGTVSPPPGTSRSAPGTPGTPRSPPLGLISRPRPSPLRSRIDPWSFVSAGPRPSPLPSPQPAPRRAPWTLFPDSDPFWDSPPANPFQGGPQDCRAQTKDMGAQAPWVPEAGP
Sequence of NEK6 (Q9HC98 whole entry, species assumed): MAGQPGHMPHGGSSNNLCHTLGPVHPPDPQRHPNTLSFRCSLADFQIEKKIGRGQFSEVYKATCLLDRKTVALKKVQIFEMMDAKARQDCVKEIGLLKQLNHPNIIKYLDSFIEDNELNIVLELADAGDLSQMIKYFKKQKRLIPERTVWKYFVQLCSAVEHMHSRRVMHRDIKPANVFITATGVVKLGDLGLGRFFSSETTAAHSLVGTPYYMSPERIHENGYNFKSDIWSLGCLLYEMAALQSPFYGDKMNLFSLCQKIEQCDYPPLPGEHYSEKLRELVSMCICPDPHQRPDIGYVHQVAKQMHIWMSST
Sequence of MSK1 (O75582 whole entry, species assumed): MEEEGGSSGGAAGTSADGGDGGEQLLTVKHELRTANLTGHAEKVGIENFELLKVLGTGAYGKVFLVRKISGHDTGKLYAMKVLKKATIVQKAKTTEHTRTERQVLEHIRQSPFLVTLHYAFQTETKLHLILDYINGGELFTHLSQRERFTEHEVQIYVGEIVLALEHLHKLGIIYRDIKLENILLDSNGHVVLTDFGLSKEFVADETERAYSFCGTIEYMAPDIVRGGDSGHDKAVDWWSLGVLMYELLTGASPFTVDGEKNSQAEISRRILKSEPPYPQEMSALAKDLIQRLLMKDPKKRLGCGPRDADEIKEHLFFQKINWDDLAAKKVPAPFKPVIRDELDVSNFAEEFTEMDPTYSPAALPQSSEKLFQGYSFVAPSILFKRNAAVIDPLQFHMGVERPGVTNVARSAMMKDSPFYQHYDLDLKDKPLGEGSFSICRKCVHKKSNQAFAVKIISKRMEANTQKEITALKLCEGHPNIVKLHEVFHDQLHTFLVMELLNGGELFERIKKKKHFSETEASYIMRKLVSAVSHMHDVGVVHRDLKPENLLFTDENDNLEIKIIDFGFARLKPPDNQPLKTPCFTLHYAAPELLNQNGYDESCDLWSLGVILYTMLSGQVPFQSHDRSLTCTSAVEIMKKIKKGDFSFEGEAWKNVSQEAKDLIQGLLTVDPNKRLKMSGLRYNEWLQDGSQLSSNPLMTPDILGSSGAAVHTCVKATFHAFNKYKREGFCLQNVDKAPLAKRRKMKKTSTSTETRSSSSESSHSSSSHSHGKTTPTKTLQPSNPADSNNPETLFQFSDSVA
Sequence of PAK4 (O96013 whole entry, species assumed): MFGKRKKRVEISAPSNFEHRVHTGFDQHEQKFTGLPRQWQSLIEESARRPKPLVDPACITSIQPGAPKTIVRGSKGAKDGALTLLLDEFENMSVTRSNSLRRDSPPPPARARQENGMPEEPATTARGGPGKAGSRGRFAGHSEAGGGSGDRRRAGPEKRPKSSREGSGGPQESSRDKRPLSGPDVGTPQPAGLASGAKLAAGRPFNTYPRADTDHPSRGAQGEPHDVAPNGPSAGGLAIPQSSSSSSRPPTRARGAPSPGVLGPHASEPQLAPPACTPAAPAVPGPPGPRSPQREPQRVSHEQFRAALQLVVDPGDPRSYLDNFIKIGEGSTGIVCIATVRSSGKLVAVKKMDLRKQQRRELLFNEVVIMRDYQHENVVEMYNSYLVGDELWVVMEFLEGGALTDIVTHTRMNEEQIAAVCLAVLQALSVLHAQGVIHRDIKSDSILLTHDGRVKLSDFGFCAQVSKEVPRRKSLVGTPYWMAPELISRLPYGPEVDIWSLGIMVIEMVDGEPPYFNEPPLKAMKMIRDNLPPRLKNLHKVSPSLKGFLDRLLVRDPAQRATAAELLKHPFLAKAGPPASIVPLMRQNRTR
Sequence of p38a MAPK (Q16539 whole entry): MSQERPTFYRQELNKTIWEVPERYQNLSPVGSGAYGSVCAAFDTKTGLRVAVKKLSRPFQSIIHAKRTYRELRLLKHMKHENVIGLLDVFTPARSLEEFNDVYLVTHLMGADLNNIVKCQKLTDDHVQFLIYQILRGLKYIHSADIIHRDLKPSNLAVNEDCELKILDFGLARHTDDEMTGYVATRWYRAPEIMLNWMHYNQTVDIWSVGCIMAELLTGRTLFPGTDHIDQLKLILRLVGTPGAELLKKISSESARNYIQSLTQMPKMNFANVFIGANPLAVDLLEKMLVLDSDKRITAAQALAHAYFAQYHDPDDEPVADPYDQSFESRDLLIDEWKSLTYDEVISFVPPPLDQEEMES
Sequence of CAMK1 (Q14012 whole entry, species assumed): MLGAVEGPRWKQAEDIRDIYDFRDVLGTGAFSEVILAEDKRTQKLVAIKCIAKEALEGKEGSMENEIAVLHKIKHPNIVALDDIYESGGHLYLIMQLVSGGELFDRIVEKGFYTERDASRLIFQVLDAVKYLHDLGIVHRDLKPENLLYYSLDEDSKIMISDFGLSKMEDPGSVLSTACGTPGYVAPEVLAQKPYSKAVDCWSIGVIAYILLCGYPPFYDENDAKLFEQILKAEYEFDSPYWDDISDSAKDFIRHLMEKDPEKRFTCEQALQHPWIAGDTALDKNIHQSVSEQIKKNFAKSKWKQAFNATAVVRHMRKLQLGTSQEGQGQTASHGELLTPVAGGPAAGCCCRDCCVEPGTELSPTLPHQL
Sequence of SmMLCK (Q15746 923-1914): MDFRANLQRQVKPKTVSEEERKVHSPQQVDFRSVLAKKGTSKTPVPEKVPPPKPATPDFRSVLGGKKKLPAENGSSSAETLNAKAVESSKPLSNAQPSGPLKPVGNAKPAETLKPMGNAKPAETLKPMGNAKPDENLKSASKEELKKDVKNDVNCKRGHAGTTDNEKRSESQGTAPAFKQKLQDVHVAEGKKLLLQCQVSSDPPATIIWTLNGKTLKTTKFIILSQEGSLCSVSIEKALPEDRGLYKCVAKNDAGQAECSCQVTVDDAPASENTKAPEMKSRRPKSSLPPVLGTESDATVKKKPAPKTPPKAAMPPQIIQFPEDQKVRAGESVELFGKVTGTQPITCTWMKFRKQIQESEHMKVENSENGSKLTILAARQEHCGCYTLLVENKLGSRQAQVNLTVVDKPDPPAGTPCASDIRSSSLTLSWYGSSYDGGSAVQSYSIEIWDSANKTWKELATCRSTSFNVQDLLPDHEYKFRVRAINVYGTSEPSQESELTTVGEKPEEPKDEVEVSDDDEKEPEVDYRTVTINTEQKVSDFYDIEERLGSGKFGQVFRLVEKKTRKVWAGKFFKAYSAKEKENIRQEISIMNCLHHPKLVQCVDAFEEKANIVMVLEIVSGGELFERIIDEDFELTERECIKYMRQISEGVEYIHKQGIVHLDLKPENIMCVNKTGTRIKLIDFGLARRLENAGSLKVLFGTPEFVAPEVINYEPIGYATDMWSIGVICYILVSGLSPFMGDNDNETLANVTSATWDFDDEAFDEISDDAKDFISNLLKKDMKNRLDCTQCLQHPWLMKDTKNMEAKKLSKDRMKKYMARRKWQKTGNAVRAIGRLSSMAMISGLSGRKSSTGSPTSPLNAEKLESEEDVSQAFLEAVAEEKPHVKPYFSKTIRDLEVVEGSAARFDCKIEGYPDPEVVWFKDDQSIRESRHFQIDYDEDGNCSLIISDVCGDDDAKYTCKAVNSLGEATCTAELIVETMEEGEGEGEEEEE
Sequence of ERK1 (P27361 whole entry, species assumed): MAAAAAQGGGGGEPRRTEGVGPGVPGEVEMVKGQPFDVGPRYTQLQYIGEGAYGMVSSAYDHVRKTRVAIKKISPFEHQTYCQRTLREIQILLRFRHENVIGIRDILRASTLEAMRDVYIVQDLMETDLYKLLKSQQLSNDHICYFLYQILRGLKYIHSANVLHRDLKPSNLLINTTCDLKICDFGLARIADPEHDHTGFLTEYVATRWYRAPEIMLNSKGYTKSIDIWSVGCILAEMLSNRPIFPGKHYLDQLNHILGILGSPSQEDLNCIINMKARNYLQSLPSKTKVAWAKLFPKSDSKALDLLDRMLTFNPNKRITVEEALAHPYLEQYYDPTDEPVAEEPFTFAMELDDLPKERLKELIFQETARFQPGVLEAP

| Compound | residual kinase activity, ERK1 (ERK1) | residual kinase activity, p38a MAPK (p38a MAPK) | residual kinase activity, p38d MAPK (p38d MAPK) | residual kinase activity, RSK2 (RSK2) | residual kinase activity, PKBb (PKBb) | residual kinase activity, MSK1 (MSK1) | residual kinase activity, CAMK1 (CAMK1) | residual kinase activity, SmMLCK (SmMLCK) | residual kinase activity, MARK3 (MARK3) | residual kinase activity, NEK6 (NEK6) | residual kinase activity, TBK1 (TBK1) | residual kinase activity, PAK4 (PAK4) | residual kinase activity, MST2 (MST2) | residual kinase activity, MLK3 (MLK3) | residual kinase activity, IRAK4 (IRAK4) | residual kinase activity, SYK (SYK) | further results |
| --- | --- | --- | --- | --- | --- | --- | --- | --- | --- | --- | --- | --- | --- | --- | --- | --- | --- |
| CC(=O)Nc1nc2cc(C)ccc2s1 [Compound 03-76] | 91 | 92 | 85 | 96 | 91 | 84 | 90 | 62 | 71 | 107 | 78 | 101 | 75 | 35 | 51 | 72 |  |
| CC(=O)Nc1nc2cc(F)ccc2s1 [Compound 03-77] |  |  |  |  |  |  |  |  |  |  |  |  |  |  |  |  | remaining activity at 100 µM (ERK1; read-out: residual kinase activity, ERK1): 90%; remaining activity at 100 µM (p38a MAPK; read-out: residual kinase activity, p38a MAPK): 88%; remaining activity at 100 µM (p38d MAPK; read-out: residual kinase activity, p38d MAPK): 76%; remaining activity at 100 µM (RSK2; read-out: residual kinase activity, RSK2): 83%; remaining activity at 100 µM (PKBb; read-out: residual kinase activity, PKBb): 93%; remaining activity at 100 µM (MSK1; read-out: residual kinase activity, MSK1): 74%; remaining activity at 100 µM (CAMK1; read-out: residual kinase activity, CAMK1): 106%; remaining activity at 100 µM (SmMLCK; read-out: residual kinase activity, SmMLCK): 66%; remaining activity at 100 µM (MARK3; read-out: residual kinase activity, MARK3): 58%; remaining activity at 100 µM (NEK6; read-out: residual kinase activity, NEK6): 96%; remaining activity at 100 µM (TBK1; read-out: residual kinase activity, TBK1): 74%; remaining activity at 100 µM (PAK4; read-out: residual kinase activity, PAK4): 97%; remaining activity at 100 µM (MST2; read-out: residual kinase activity, MST2): 80%; remaining activity at 100 µM (MLK3; read-out: residual kinase activity, MLK3): 44%; remaining activity at 100 µM (IRAK4; read-out: residual kinase activity, IRAK4): 43%; remaining activity at 100 µM (SYK; read-out: residual kinase activity, SYK): 82% |
| O=C(Nc1nc2ccc(O)cc2s1)c1ccncc1 [Compound 08-42] | 84 | 99 | 65 | 62 | 52 | 92 | 68 | 33 | 68 | 75 | 61 | 69 | 55 | 30 | 42 | 90 |  |
| O=C(Nc1nc2ccc(O)cc2s1)c1cccnc1 [Compound 08-44] | 81 | 108 | 62 | 56 | 45 | 49 | 42 | 19 | 65 | 84 | 81 | 64 | 57 | 26 | 32 | 71 |  |
